Results: patent US10869931B2, “Polyethylene glycol-modified angiogenesis inhibitor HM-1 and application thereof” (NANJING ANJI BIOLOGICAL TECHNOLOGY CO.,LTD, priority 2016, dated 2020)
Marks after values point to notes of the source that are not given here. Where no end group is shown, it is not given here.

Columns and labels:
[1] = system: Bladder Cancer tumor cells; experiment: MTT proliferation inhibition, bladder cancer cells; type: cell-based, human; design: concentration or dose not given beside the values; settings: 48 h
Method in brief: (§1)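 Tumour cells plated at 2×10^4 cells/mL, attached overnight, then exposed to dilutions of mPEG-HM-1 for 48 h at 37 °C, 5% CO2. MTT added 4 h, formazan dissolved in DMSO, absorbance 570/630 nm; growth inhibition = 1 − treated/untreated, three independent repeats, mean±SD.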

[2] = system: Human Umbilical Vein Endothelial Cells (HUVEC); experiment: Transwell migration of HUVEC; type: cell-based; settings: 24 h
Method in brief: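 HUVEC (1×10^5/mL in blank medium) seeded with test solutions into Matrigel-coated transwell inserts, lower chamber holding medium with 5% FBS and 1% ECGS, 24 h at 37 °C. Migrated cells crystal-violet stained and counted in four fields; migration inhibition calculated from test versus blank-control counts, three independent repeats.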

[3] = system: Gastric cancer tumor cells; experiment: MTT proliferation inhibition, gastric cancer cells; type: cell-based, human; design: concentration or dose not given beside the values; settings: 48 h
Method in brief: as §1

[4] = system: Melanoma tumor cells; experiment: MTT proliferation inhibition, melanoma cells; type: cell-based, human; design: concentration or dose not given beside the values; settings: 48 h
Method in brief: as §1

[5] = system: adjuvant arthritis (AA) SD rats; experiment: Adjuvant arthritis (AA) rat model; type: in vivo; settings: for Joint swelling / Left and right paw swelling / Clinical score: AA SD rats; for Clinical score: maximum score 16; for in vivo immune protection effect on adjuvant arthritis model (in words): AA rats, subcutaneous, once every three days, vs model group
[6] = system: Cervical cancer tumor cells; experiment: MTT proliferation inhibition, cervical cancer cells; type: cell-based, human; design: concentration or dose not given beside the values; settings: 48 h
Method in brief: as §1

[7] = system: IL-1β production by mouse peritoneal macrophages; experiment: IL-1β production by mouse peritoneal macrophages (ELISA); type: cell-based; settings: 48 h
Method in brief: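 Starch-elicited mouse peritoneal macrophages (2×10^6 cells/mL), adhered 3 h, treated with low, medium and high concentrations of mPEG-HM-1 for 48 h; dexamethasone as positive control. Supernatant IL-1β quantified by sandwich ELISA at OD450.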

[8] = system: Esophageal cancer tumor cells; experiment: MTT proliferation inhibition, esophageal cancer cells; type: cell-based, human; design: concentration or dose not given beside the values; settings: 48 h
Method in brief: as §1

[9] = in vivo
[10] = 40 mg/kg subcutaneous once every three days
[11] = 20 mg/kg subcutaneous once every three days
[12] = 10 mg/kg subcutaneous once every three days
[13] = 80 mg/kg subcutaneous once every three days

Substance	rate of growth inhibition [1] [%]	cell migration number (Mean ± SD) ([2]; 70 μg/mL)	inhibition rate of HUVEC migration ([2]; 70 μg/mL)	cell migration number (Mean ± SD) ([2]; 80 μg/mL)	inhibition rate of HUVEC migration ([2]; 80 μg/mL)	cell migration number (Mean ± SD) ([2]; 90 μg/mL)	inhibition rate of HUVEC migration ([2]; 90 μg/mL)	cell migration number (Mean ± SD) ([2]; 100 μg/mL)	rate of growth inhibition [3] [%]	rate of growth inhibition [4] [%]	rate of growth inhibition [6] [%]	IL-1β ([7]; 20 μg/mL) [pg/mL]	Inhibition Rate of IL-1β production ([7]; 20 μg/mL) [%]	IL-1β ([7]; 40 μg/mL) [pg/mL]	Inhibition Rate of IL-1β production ([7]; 40 μg/mL) [%]	rate of growth inhibition [8] [%]	AUC0-∞ [9] [mg/L/h]	CL [9] [mL/min/kg]	MRT0-∞ [9] [h]	T1/2β (half-life) [9] [h]	further results
mPEG2-NHS20k-Arg-Gly-Ala-Asp-Arg-Ala-Gly-Gly-Gly-Gly-Arg-Gly-Asp ({mPEG2‑NHS 20 kDa}-RGADRAGGGGRGD) [mPEG2-NHS20k-HM-1]	49.79 ± 12.73	618.48 ± 47.53	40.34%*	512.85 ± 40.86	50.53%	434.68 ± 42.64	58.07%	562.61 ± 62.34	60.90 ± 20.14	69.11 ± 21.79	60.63 ± 19.39	759.06 ± 16.96	18.04	655.24 ± 18.59	29.25	50.79 ± 14.37	4682.53 ± 15.01	0.218 ± 0.17	18.16 ± 10.22	22.38 ± 0.34	inhibition rate of HUVEC migration ([2]; 100 μg/mL): 45.73%*; Joint swelling [5, 10]: 0.80 ± 0.21 mm; Left and right paw swelling [5, 10]: 3.77 ± 0.66 mm; Clinical score [5, 10]: 5.82 ± 1.03; IL-1β ([7]; 80 μg/mL): 552.35 ± 10.50 pg/mL; Inhibition Rate of IL-1β production ([7]; 80 μg/mL): 40.36%
mPEG-SC10k-Arg-Gly-Ala-Asp-Arg-Ala-Gly-Gly-Gly-Gly-Arg-Gly-Asp ({mPEG‑SC 10 kDa}-RGADRAGGGGRGD) [mPEG-SC10k-HM-1]	42.76 ± 10.06	439.89 ± 48.08	58.53%	580.33 ± 58.20	45.29%*				56.22 ± 16.19	70.62 ± 20.17	57.17 ± 18.40	666.50 ± 11.93	28.87	553.03 ± 14.12	40.98	52.18 ± 10.25	4671.86 ± 10.76	0.455 ± 0.0933	12.67 ± 5.84	15.18 ± 0.11	cell migration number (Mean ± SD) ([2]; 50 μg/mL): 612.15 ± 50.34; inhibition rate of HUVEC migration ([2]; 50 μg/mL): 42.49%*; cell migration number (Mean ± SD) ([2]; 60 μg/mL): 527.08 ± 48.30; inhibition rate of HUVEC migration ([2]; 60 μg/mL): 50.31%; Joint swelling [5, 11]: 0.70 ± 0.18 mm; Left and right paw swelling [5, 11]: 3.81 ± 0.71 mm; Clinical score [5, 11]: 5.52 ± 1.07; in vivo immune protection effect on adjuvant arthritis model (in words) [5]: has the most significant effect; IL-1β ([7]; 10 μg/mL): 758.05 ± 15.18 pg/mL; Inhibition Rate of IL-1β production ([7]; 10 μg/mL): 19.10%
mPEG-bALD5k-Arg-Gly-Ala-Asp-Arg-Ala-Gly-Gly-Gly-Gly-Arg-Gly-Asp ({mPEG‑bALD 5 kDa}-RGADRAGGGGRGD) [mPEG-bALD5k-HM-1]	36.03 ± 10.12								56.87 ± 14.41	65.62 ± 20.35	64.52 ± 16.88	533.11 ± 10.87	42.19			45.03 ± 11.46	4782.29 ± 11.37	0.83 ± 0.162	8.46 ± 6.95	9.35 ± 0.12	cell migration number (Mean ± SD) ([2]; 30 μg/mL): 654.96 ± 52.07; inhibition rate of HUVEC migration ([2]; 30 μg/mL): 40.03%*; cell migration number (Mean ± SD) ([2]; 40 μg/mL): 545.96 ± 45.32; inhibition rate of HUVEC migration ([2]; 40 μg/mL): 50.01%; cell migration number (Mean ± SD) ([2]; 50 μg/mL): 489.28 ± 46.98; inhibition rate of HUVEC migration ([2]; 50 μg/mL): 55.20%; cell migration number (Mean ± SD) ([2]; 60 μg/mL): 577.96 ± 58.76; inhibition rate of HUVEC migration ([2]; 60 μg/mL): 47.08%*; Joint swelling [5, 12]: 0.73 ± 0.18 mm; Left and right paw swelling [5, 12]: 3.94 ± 0.65 mm; Clinical score [5, 12]: 5.92 ± 1.11; IL-1β ([7]; 5 μg/mL): 729.25 ± 18.34 pg/mL; Inhibition Rate of IL-1β production ([7]; 5 μg/mL): 20.92%; IL-1β ([7]; 10 μg/mL): 659.63 ± 16.52 pg/mL; Inhibition Rate of IL-1β production ([7]; 10 μg/mL): 28.47%
mPEG2-NHS10k-Arg-Gly-Ala-Asp-Arg-Ala-Gly-Gly-Gly-Gly-Arg-Gly-Asp ({mPEG2‑NHS 10 kDa}-RGADRAGGGGRGD) [mPEG2-NHS10k-HM-1]	43.78 ± 10.16	410.53 ± 48.64	60.40%	563.02 ± 56.22	45.69%*				55.67 ± 13.53	65.89 ± 20.57	54.82 ± 17.10	675.25 ± 11.93	27.09	546.79 ± 14.12	40.96	48.12 ± 12.85	4858.62 ± 10.62	0.432 ± 0.103	13.08 ± 3.66	15.27 ± 0.11	cell migration number (Mean ± SD) ([2]; 50 μg/mL): 603.97 ± 40.36; inhibition rate of HUVEC migration ([2]; 50 μg/mL): 41.74%*; cell migration number (Mean ± SD) ([2]; 60 μg/mL): 506.83 ± 46.25; inhibition rate of HUVEC migration ([2]; 60 μg/mL): 51.11%; Joint swelling [5, 11]: 0.69 ± 0.19 mm; Left and right paw swelling [5, 11]: 3.80 ± 0.73 mm; Clinical score [5, 11]: 5.53 ± 1.09; in vivo immune protection effect on adjuvant arthritis model (in words) [5]: has the most significant effect; IL-1β ([7]; 10 μg/mL): 758.32 ± 15.18 pg/mL; Inhibition Rate of IL-1β production ([7]; 10 μg/mL): 18.12%
mPEG-SC20k-Arg-Gly-Ala-Asp-Arg-Ala-Gly-Gly-Gly-Gly-Arg-Gly-Asp ({mPEG‑SC 20 kDa}-RGADRAGGGGRGD) [mPEG-SC20k-HM-1]	50.39 ± 11.73	596.77 ± 50.58	43.74%*	499.29 ± 50.26	52.93%	415.07 ± 46.74	60.87%	559.75 ± 52.94	66.14 ± 20.08	72.14 ± 20.69	62.93 ± 20.09	761.42 ± 16.96	18.74	653.20 ± 18.59	30.29	55.51 ± 16.22	4310.23 ± 12.98	0.225 ± 0.155	17.64 ± 12.67	21.46 ± 0.24	inhibition rate of HUVEC migration ([2]; 100 μg/mL): 47.23%*; Joint swelling [5, 10]: 0.81 ± 0.20 mm; Left and right paw swelling [5, 10]: 3.75 ± 0.67 mm; Clinical score [5, 10]: 5.83 ± 1.01; IL-1β ([7]; 80 μg/mL): 512.27 ± 10.50 pg/mL; Inhibition Rate of IL-1β production ([7]; 80 μg/mL): 45.33%
mPEG-SC40k-Arg-Gly-Ala-Asp-Arg-Ala-Gly-Gly-Gly-Gly-Arg-Gly-Asp ({mPEG‑SC 40 kDa}-RGADRAGGGGRGD) [mPEG-SC40k-HM-1]	48.69 ± 11.61					632.63 ± 58.69	40.36%*	501.84 ± 62.84	55.13 ± 10.32	68.73 ± 21.25	61.52 ± 15.11			774.07 ± 15.32	17.39	52.12 ± 12.35	4365.64 ± 11.06	0.113 ± 0.0783	16.36 ± 10.28	42.19 ± 0.32	inhibition rate of HUVEC migration ([2]; 100 μg/mL): 52.69%; cell migration number (Mean ± SD) ([2]; 110 μg/mL): 464.50 ± 48.47; inhibition rate of HUVEC migration ([2]; 110 μg/mL): 56.21%; cell migration number (Mean ± SD) ([2]; 120 μg/mL): 542.89 ± 49.29; inhibition rate of HUVEC migration ([2]; 120 μg/mL): 48.82%*; Joint swelling [5, 13]: 0.71 ± 0.11 mm; Left and right paw swelling [5, 13]: 3.83 ± 0.62 mm; Clinical score [5, 13]: 5.88 ± 1.08; IL-1β ([7]; 80 μg/mL): 670.72 ± 16.71 pg/mL; Inhibition Rate of IL-1β production ([7]; 80 μg/mL): 28.42%; IL-1β ([7]; 160 μg/mL): 553.22 ± 10.82 pg/mL; Inhibition Rate of IL-1β production ([7]; 160 μg/mL): 40.96%
